From US10206907B2, “Compounds useful for the treatment of degenerative and inflammatory diseases” (GALAPAGOS NV, priority 2008, dated 2019) come the findings set out here.

pIC50: −log10 of the molar value. Some results are limits rather than exact numbers.

For the assay, the target named is Recombinant human JAK1 catalytic domain (Homo sapiens (Human), UniProt P23458). The experiment in a line: JAK1 inhibition assay. The settings on record: semi-quantitative score. In kind it is biochemical. On the procedure: Plates were washed 6 times with 300 μL per well of a 75 mM phosphoric acid solution and the bottom of the plates was sealed. 40 μL/well of Microscint-20 was added, the top of the plates was sealed and readout was performed using the Topcount (Perkin Elmer). Kinase activity was calculated by subtracting counts per minute (cpm) obtained in the presence of a positive control inhibitor (10 μM staurosporine) from cpm obtained in the presence of vehicle. The ability of a test compound to inhibit this activity was determined as: Percentage inhibition=((cpm determined for sample with test compound present−cpm determined for sample with positive control inhibitor) divided by (cpm determined in the presence of vehicle−cpm determined for sample with positive control inhibitor))*100%.
Chain of Recombinant human JAK1 catalytic domain (P23458 850-1154): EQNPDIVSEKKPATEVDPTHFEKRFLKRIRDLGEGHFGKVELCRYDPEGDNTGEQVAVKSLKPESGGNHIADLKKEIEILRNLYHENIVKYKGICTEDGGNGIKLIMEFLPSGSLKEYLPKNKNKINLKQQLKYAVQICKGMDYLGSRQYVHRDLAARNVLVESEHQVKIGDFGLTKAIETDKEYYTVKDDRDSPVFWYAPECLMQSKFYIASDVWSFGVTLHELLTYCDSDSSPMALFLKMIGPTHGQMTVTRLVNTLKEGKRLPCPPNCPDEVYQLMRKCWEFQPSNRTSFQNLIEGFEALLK
Dose dilution series were prepared for the compounds enabling the testing of dose-response effects in the JAK1 assay and the calculation of the IC50 for each compound.
As for `Cc1cc(CN(C)Cc2ccc(-c3cccc4nc(NC(=O)C5CC5)nn34)cc2)nn1C` [Compound 160, N-(5-(4-((((1,5-dimethyl-1H-pyrazol-3-yl)methyl)(methyl)amino)methyl)phenyl)-[1,2,4]triazolo[1,5-a]pyridin-2-yl)cyclopropanecarboxamide], the pIC50 was 6.30 to 7.00.

Consider `CCCN(CC1CCCO1)C(=O)c1ccc(-c2cccc3nc(NC(=O)C4CC4)nn23)cc1` (centres unmarked) [Compound 136, 4-(2-(cyclopropanecarboxamido)-[1,2,4]triazolo[1,5-a]pyridin-5-yl)-N-propyl-N-((tetrahydrofuran-2-yl)methyl)benzamide], for which the pIC50 was 6.30 to 7.00.

As to `O=C(Nc1nc2cccc(-c3ccc(NS(=O)(=O)C4CC4)nc3)n2n1)C1CC1` [Compound 191, N-(5-(6-(cyclopropanesulfonamido)pyridin-3-yl)-[1,2,4]triazolo[1,5-a]pyridin-2-yl)cyclopropanecarboxamide], the negative logarithm of the IC50 (pIC50) was under 6.00.

As to `O=C(Nc1nc2cccc(-c3ccc(C(=O)N4CCC(CCN5CCOCC5)CC4)cc3)n2n1)C1CC1` [Compound 94, N-(5-(4-(4-(2-morpholinoethyl)piperidine-1-carbonyl)phenyl)-[l,2,4]triazolo[1,5-a]pyridin-2-yl)cyclopropanecarboxamide], the negative logarithm of the IC50 (pIC50) is 6.30 to 7.00.

Take `O=C(Nc1nc2cccc(-c3ccc(S(=O)(=O)Cc4cccnc4)cc3)n2n1)C1CC1` [Compound 195, N-(5-(4-(pyridin-3-ylmethylsulfonyl)phenyl)-[1,2,4]triazolo[1,5-a]pyridin-2-yl)cyclopropanecarboxamide]: the pIC50 was 6.30 to 7.00.

With `O=C(Nc1nc2cccc(-c3ccc(C(=O)N4CCC(c5ccc(Cl)cc5)CC4)cc3)n2n1)C1CC1` [Compound 86], the pIC50 is over 7.00.

For the compound `O=C(Nc1nc2cccc(-c3ccc(C(=O)N4CCC(O)(c5ccc(Cl)cc5)CC4)cc3)n2n1)C1CC1` [Compound 132], the negative-log IC50 (pIC50) is 6.30 to 7.00.

Take `COc1ccc(CCN(C)C(=O)c2ccc(-c3cccc4nc(NC(=O)C5CC5)nn34)cc2)cc1OC` [Compound 105, 4-(2-(cyclopropanecarboxamido)-[1,2,4]triazolo[1,5-a]pyridin-5-yl)-N-(3,4-dimethoxyphenethyl)-N-methylbenzamide]: the pIC50 is 6.30 to 7.00.

Turning to `Cc1ccccc1OCC1CCN(C(=O)c2ccc(-c3cccc4nc(NC(=O)C5CC5)nn34)cc2)CC1` [Compound 133], the pIC50 is 6.30 to 7.00.

Take `CC(=O)N1CCN(Cc2ccc(-c3cccc4nc(NC(=O)C5CC5)nn34)cc2)CC1` [Compound 141, N-(5-(4-((4-acetoylpiperazin-1-yl)methyl)phenyl)-[1,2,4]triazolo[1,5-a]pyridin-2-yl)cyclopropanecarboxamide]: the pIC50 is 6.30 to 7.00.

With `O=C(Nc1nc2cccc(-c3ccc(CN4CCN(c5ncccn5)CC4)cc3)n2n1)C1CC1` [Compound 143, N-(5-(4-((4-(pyrimidin-2-yl)piperazin-1-yl)methyl)phenyl)-[1,2,4]triazolo[1,5-a]pyridin-2-yl)cyclopropanecarboxamide], the pIC50 was 6.30 to 7.00.

Regarding `O=C(Nc1nc2cccc(-c3ccc(N4CCOCC4)cc3)n2n1)C1CC1` [Compound 129, N-(5-(4-morpholinophenyl)-[1,2,4]triazolo[1,5-a]pyridin-2-yl)cyclopropanecarboxamide], the negative-log IC50 (pIC50) is under 6.00.

Consider `CN(Cc1ccc(-c2ccccn2)cc1)Cc1ccc(-c2cccc3nc(NC(=O)C4CC4)nn23)cc1` [Compound 159, N-(5-(4-((methyl(4-(pyridin-2-yl)benzyl)amino)methyl)phenyl)-[1,2,4]triazolo[1,5-a]pyridin-2-yl)cyclopropanecarboxamide], for which the pIC50 is 6.30 to 7.00.

Regarding `O=C(Nc1ccc(-c2cccc3nc(NC(=O)C4CC4)nn23)cn1)c1ccccc1` [Compound 44, N-(5-(2-(cyclopropanecarboxamido)-[1,2,4]triazolo[1,5-a]pyridin-5-yl)pyridin-2-yl)benzamide], the pIC50 was 6.00 to 6.30.
